Data as given in US20110098325A1, “PYRIDINE BENZAMIDES AND PYRAZINE BENZAMIDES USED AS PKD INHIBITORS” (CANCER RESEARCH TECHNOLOGY LIMITED, priority 2006, published 2011).

What follows are compounds tested against T1, Murine PKD1 kinase domain (Mus musculus, UniProt Q62101) (assay: PKD1 (Murine Kinase Domain) Enzyme Activity Assay (IMAP fluorescence polarisation)). Details: 10 μM ATP, 60 minutes, room temperature.
T1 construct: hexahistidine (pFastBac HTb leader) (N); made in house; host or cells: Sf9 insect cells, baculovirus (Bac-to-Bac HT, pFastBac HTb)
T1 sequence (Q62101 with tags, fused parts or gaps R683W): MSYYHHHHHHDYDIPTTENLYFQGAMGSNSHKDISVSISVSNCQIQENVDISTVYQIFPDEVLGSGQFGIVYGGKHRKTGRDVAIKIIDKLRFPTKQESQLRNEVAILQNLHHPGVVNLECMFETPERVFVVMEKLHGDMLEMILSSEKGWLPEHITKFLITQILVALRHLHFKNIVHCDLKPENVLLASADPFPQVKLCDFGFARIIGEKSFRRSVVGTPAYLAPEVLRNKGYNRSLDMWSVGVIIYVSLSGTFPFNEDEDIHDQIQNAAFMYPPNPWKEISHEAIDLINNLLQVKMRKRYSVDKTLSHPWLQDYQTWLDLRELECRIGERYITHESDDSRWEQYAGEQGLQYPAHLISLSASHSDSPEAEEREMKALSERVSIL
Format: biochemical
From the text: The DNA sequence corresponding to murine PKD1 (see FIG. 1) was inserted into pFastBAc Htb (Invitrogen, USA) at BamH1 and EcoR1 sites using standard molecular biology techniques.
The PKD1 described above was expressed as a hexahistidine tagged protein construct using a commercially available baculoviral expression system that induces protein production in insect cell culture (Bac-to-Bac® HT Baculovirus Expression System, Invitrogen). Protein was typically expressed by inoculating 1 L of sf9 cells with a genetically modified baculovirus containing the gene for the kinase domain of PKD1. Sf9 cells were obtained from ICR Ltd.
Purification of PKD1 was achieved by standard chromatographic procedures. Capture from crude centrifuged lysed cell supernatant was achieved using metal affinity chromatography (GE Healthcare Life Sciences, HiTrap Chelating chromatography column), and fractions showing PKD1 (as assessed by gel electrophoresis and western blot) were further purified by a single polish purification step performed using a mono Q anion exchange chromatography system (GE Healthcare Life Sciences, HiTrap HP Q column). […] This protocol describes the method for screening compounds as inhibitors of Protein Kinase D activity in a 384 well microplate format fluorescence polarisation IMAP assay performed using the Biomek FX.
Kinase Enzyme: Murine PKD1 kinase domain at ˜100 μg/mL, was purified from baculovirus (as described above), obtained from aliquots stored at −70° C. PKD was prepared with a final concentration of 0.1 μg/mL by diluting 1:300 in Reaction Buffer (30 μL per 9 mL-5 mL per plate with an additional 4 mL dead volume) and vortexing prior to use. It was necessary to check this concentration regularly in case of enzyme degradation.
(also known as MAPKAP K2 substrate) was obtained from Molecular Devices (Product code R7127). It was used at 300 nM by diluting 20 μM stock 1:66 in Kinase/Reaction Buffer (135 μL per 9 mL; 75 μL per 5 mL Reaction Buffer for blank wells requiring <1 mL per place with an additional 4 mL dead volume).
A 1 mM ATP stock in Reaction Buffer was prepared from a 10 mM stock in 20 mM NaOH and stored as aliquots at −70° C. It was used at 40 μM by diluting 1 mM stock 1:25 in Reaction Buffer (240 μL per 6 mL-2 mL per plate with an additional 4 mL dead volume) and vortexing prior to use.
IMAP Reagents: IMAP Binding Reagent (product code R7207) and Binding Buffer (product code R7208) were obtained from Molecular Devices and stored at +4° C. The beads were gently re-suspended before diluting by 1:400 in buffer (Binding Buffer is supplied as a 5× stock and so was diluted with water prior to use) and then vortexing before addition to wells. 16 mL water with 4 mL Binding Buffer and 50 μL Binding Reagent were used per plate (17 mL per plate with an additional 3 mL dead volume).
13 μL Substrate in Reaction Buffer was added to ‘blank’ wells to give 200 nM reaction concentration. […] 2 μL 10% DMSO/water was added to ‘blank’ and ‘control’ wells. 5 μL ATP in Reaction Buffer was added to all wells to give 10 μM reaction concentration. The reaction mixture was then incubated at room temperature for 60 minutes. The incubation period was followed by the addition of 40 μL IMAP Binding Reagent in Binding Buffer to all wells. The reaction was then further incubated at room temperature for […].
Percentage inhibition was calculated based on activity of the test sample minus the average values in the blank wells relative to the average values measured in control wells minus the average values in the blank wells.
IC50 values were calculated from 10 point dose sigmoid ‘dose-response’ curves using Xlfit software (IDBS inc, USA). Data were fitted to a 4 parameter logistic model/sigmoidal dose response:
where: A=fit minimum (locked to 0); B=fit maximum (locked to 100); C=fit midpoint (pre-fit to 1); D=slope at linear portion of curve, hillslope (pre-fit to 0.1)
Work on COc1ccc(-c2cc(-c3cccc(C(=O)NCCN(C)C)c3)cnc2N)cc1OC [Y-035, 3-[6-Amino-5-(3,4-dimethoxy-phenyl)-pyridin-3-yl]-N-(2-dimethylamino-ethyl)-benzamide] yielded an IC50 of under 1000 nM.
For COc1cc(-c2nc(-c3cccc(C(=O)NCCN(C)C)c3)cnc2N)ccc1F [X-016, 3-[5-Amino-6-(4-fluoro-3-methoxy-phenyl)-pyrazin-2-yl]-N-(2-dimethylamino-ethyl)-benzamide], the IC50 was under 1000 nM.
With COc1cccc(-c2nc(-c3cccc(C(=O)NCCN(C)C)c3)cnc2N)c1 [X-026, 3-[5-Amino-6-(3-methoxy-phenyl)-pyrazin-2-yl]-N-(2-dimethylamino-ethyl)-benzamide] the IC50 was under 1000 nM.
CN(C)CCNC(=O)c1cccc(-c2cnc(N)c(-c3ccnc(O)c3)c2)c1 [Y-071, 3-(2-Amino-2′-hydroxy-[3,4′]bipyridinyl-5-yl)-N-(2-dimethylamino-ethyl)-benzamide] showed an IC50 of under 1000 nM.
Compound COc1cccc(-c2cc(-c3cccc(C(=O)NC(C)CN(C)C)c3)cnc2N)c1 (centres unmarked) [Y-092, 3-[6-Amino-5-(3-methoxy-phenyl)-pyridin-3-yl]-N-(2-dimethylamino-1-methyl-ethyl)-benzamide] has an IC50 of under 1000 nM.
In the case of COc1cccc(-c2cc(-c3cccc(C(=O)N(C)CCN(C)C)c3)cnc2N)c1 [Y-075, 3-[6-Amino-5-(3-methoxy-phenyl)-pyridin-3-yl]-(2-dimethylamino-ethyl)-N-methyl-benzamide], the IC50 is reported as under 1000 nM.
CN(C)CCNC(=O)c1cccc(-c2cnc(N)c(-c3ccc(Cl)c(F)c3)c2)c1 [Y-052, 3-[6-Amino-5-(4-chloro-3-fluoro-phenyl)-pyridin-3-yl]-N-(2-dimethylamino-ethyl)-benzamide] gave an IC50 of under 1000 nM.
COc1ccc2cc(-c3cc(-c4cccc(C(=O)NCCN(C)C)c4)cnc3N)ccc2c1 [Y-087, 3-[6-Amino-5-(6-methoxy-naphthalen-2-yl)-pyridin-3-yl]-N-(2-dimethylamino-ethyl)-benzamide] was tested, and the IC50 was under 1000 nM.
Compound CN(C)CCNC(=O)c1cccc(-c2cnc(N)c(-c3ccc4c(c3)OCO4)c2)c1 [Y-010, 3-(6-Amino-5-benzo[1,3]dioxol-5-yl-pyridin-3-yl)-N-(2-dimethylamino-ethyl)-benzamide] has an IC50 of under 1000 nM.
Compound CN(C)CCNC(=O)c1cccc(-c2cnc(N)c(-c3ccc(OCc4ccccc4)cc3)c2)c1 [Y-051, 3-[6-Amino-5-(4-benzyloxy-phenyl)-pyridin-3-yl]-N-(2-dimethylamino-ethyl)-benzamide] has an IC50 of under 1000 nM.
In the case of COc1cc(-c2nc(-c3cccc(C(=O)NCCN(C)C)c3)cnc2N)ccn1 [X-024, 3-[5-Amino-6-(2-methoxy-pyridin-4-yl)-pyrazin-2-yl]-N-(2-dimethylamino-ethyl)-benzamide], the IC50 is reported as under 1000 nM.
For CCN(CC)CCNC(=O)c1cccc(-c2cnc(N)c(-c3cccc(OC)c3)n2)c1 [X-027, 3-[5-Amino-6-(3-methoxy-phenyl)-pyrazin-2-yl]-N-(2-diethylamino-ethyl)-benzamide], the IC50 was under 1000 nM.
CN(C)CCNC(=O)c1cccc(-c2cnc(N)c(-c3ccc(C(C)(C)C)cc3)c2)c1 [Y-068, 3-[6-Amino-5-(4-tert-butyl-phenyl)-pyridin-3-yl]-N-(2-dimethylamino-ethyl)-benzamide] showed an IC50 of under 1000 nM.
With CN(C)CCNC(=O)c1cccc(-c2cnc(N)c(-c3cc(Cl)cc(Cl)c3)c2)c1 [Y-037, 3-[6-Amino-5-(3,5-dichloro-phenyl)-pyridin-3-yl]-N-(2-dimethylamino-ethyl)-benzamide] the IC50 was under 1000 nM.
NC(=O)c1cccc(-c2cnc(N)c(-c3ccc4[nH]ccc4c3)c2)c1 [Y-025, 3-[6-Amino-5-(1H-indol-5-yl)-pyridin-3-yl]-benzamide] showed an IC50 of under 1000 nM.
With CN(C)CCNC(=O)c1cccc(-c2cnc(N)c(-c3ccc4ccccc4c3)c2)c1 [Y-020, 3-(6-Amino-5-naphthalen-2-yl-pyridin-3-yl)-N-(2-dimethylamino-ethyl)-benzamide] the IC50 was under 1000 nM.
For CN(C)CCNC(=O)c1cccc(-c2cnc(N)c(-c3cccc(C#N)c3)c2)c1 [Y-041, 3-[6-Amino-5-(3-cyano-phenyl)-pyridin-3-yl]-N-(2-dimethylamino-ethyl)-benzamide], the IC50 was under 1000 nM.
Work on CN(C)CCNC(=O)c1cccc(-c2cnc(N)c(-c3ccnc(Cl)c3)c2)c1 [Y-085, 3-(2-Amino-2′-chloro-[3,4′]bipyridinyl-5-yl)-N-(2-dimethylamino-ethyl)-benzamide] yielded an IC50 of under 1000 nM.
For COc1ccccc1-c1cncc(-c2cccc(C(=O)NCCN(C)C)c2)n1 [X-002, N-(2-Dimethylamino-ethyl)-3-[6-(2-methoxy-phenyl)-pyrazin-2-yl]-benzamide], the IC50 was 1000 to 10000 nM.
COc1cc(-c2cc(-c3cccc(C(=O)NCCN(C)C)c3)cnc2N)cc(OC)c1OC [Y-088, 3-[6-Amino-5-(3,4,5-trimethoxy-phenyl)-pyridin-3-yl]-N-(2-dimethylamino-ethyl)-benzamide] showed an IC50 of under 1000 nM.
In the case of CN(C)CCNC(=O)c1cccc(-c2cnc(N)c(-c3ccc(F)c(F)c3)c2)c1 [Y-033, 3-[6-Amino-5-(3,4-difluoro-phenyl)-pyridin-3-yl]-N-(2-dimethylamino-ethyl)-benzamide], the IC50 is reported as under 1000 nM.
CN(C)CCNC(=O)c1cccc(-c2cncc(-c3cccc4c3oc3ccccc34)n2)c1 [X-013, 3-(6-Dibenzofuran-4-yl-pyrazin-2-yl)-N-(2-dimethylamino-ethyl)-benzamide] gave an IC50 of under 1000 nM.
In the case of CN(C)CCNC(=O)c1cccc(-c2cnc(N)c(-c3ccc(O)nc3)c2)c1 [Y-007, 3-(2-Amino-6′-hydroxy-[3,3′]bipyridinyl-5-yl)-N-(2-dimethylamino-ethyl)-benzamide], the IC50 is reported as under 1000 nM.
CN(C)CCNC(=O)c1cccc(-c2cnc(N)c(-c3cccc4c3sc3ccccc34)c2)c1 [Y-015, 3-(6-Amino-5-dibenzothiophen-4-yl-pyridin-3-yl)-N-(2-dimethylamino-ethyl)-benzamide] was tested, and the IC50 was under 1000 nM.
Compound COc1cc(-c2cc(-c3cccc(C(=O)NCCN(C)C)c3)cnc2N)ccc1F [Y-056, 3-[6-Amino-5-(4-fluoro-3-methoxy-phenyl)-pyridin-3-yl]-N-(2-dimethylamino-ethyl)-benzamide] has an IC50 of under 1000 nM.
Work on CN(C)CCNC(=O)c1cccc(-c2cnc(N)c(-c3ccc4c(c3)CCO4)c2)c1 [Y-028, 3-[6-Amino-5-(2,3-dihydro-benzofuran-5-yl)-pyridin-3-yl]-N-(2-dimethylamino-ethyl)-benzamide] yielded an IC50 of under 1000 nM.
Compound COc1cc(-c2cncc(-c3cccc(C(=O)NCCN)c3)n2)ccc1O [X-021, N-(2-Amino-ethyl)-3-[6-(4-hydroxy-3-methoxy-phenyl)-pyrazin-2-yl]-benzamide] has an IC50 of under 1000 nM.
For CN(C)CCNC(=O)c1cccc(-c2cnc(N)c(-c3ccc4[nH]ncc4c3)c2)c1 [Y-094, 3-[6-Amino-5-(1H-indazol-5-yl)-pyridin-3-yl]-N-(2-dimethylamino-ethyl)-benzamide], the IC50 was under 1000 nM.
Compound CN(C)CCNC(=O)c1cccc(-c2cnc(N)c(-c3cccc(-c4ccccc4)c3)c2)c1 [Y-013, 3-(6-Amino-5-biphenyl-3-yl-pyridin-3-yl)-N-(2-dimethylamino-ethyl)-benzamide] has an IC50 of under 1000 nM.
